Assays:
C57BL/6 mice = assay: Chronic low dose alcohol model; assay type: in vivo, mouse; conditions: 20 mg/kg orally 2 h prior to EtOH 3 g/kg twice daily, 5 days
Description: C57BL/6 mice (10 wk old age) were used in low dose chronic ALD models. Mice were treated with EtOH (3 g/kg) daily twice orally for 5 days at 3 g/kg, UroA (20 mg/kg) was given orally 2 h prior to EtOH treatment. Mice were euthanized on day 6 and analyzed the indicated parameters. Error bars, ±SEM. Statistics were performed using 2 way ANOVA multiple comparisons. * p<0.05, ** p<0.01, *** p<0.001.
C57BL/6 mice (n=5 per group) were treated with EtOH (3 g/kg) twice daily orally for 5 days. UroA (20 mg/kg) was given orally 2 h prior to EtOH treatment. We evaluated gut permeability and inflammation parameters both in serum and liver (FIG. 17).

AhR^−/− mice = assay: Acute ALD model in AhR^−/− mice; assay type: in vivo, mouse; conditions: 20 mg/kg at 2, 14 and 26 h
Description: FIG. 19: UroA treatment failed in AhR^−/− mice to protect against binge EtOH-induced ALD. C547BL/6 and AhR^−/− mice (n=4/group) were oral gavaged with alcohol (2.5 g/kg) at 0, 12 and 24 h. Mice were treated with Veh (0.25% CMC) or UroA (20 mg/kg) at 2, 14 and 26 h. Mice were euthanized at 32 h. The Fecal albumin was measured using standard ELISA. Serum endotoxin, TNF-α, ALT as well as liver ALT and TG levels using ELISA methods. Error bars, ±SEM. Statistics were performed using 2way ANOVA multiple comparisons. * p<0.05, ** p<0.01, *** p<0.001.
AhR has a role for UroA mediated protection in ALD model: To address the role of AhR expression for UroA mediated activities, we performed acute ALD models in C57BL/6J mice and AhR^−/− mice. In this experiment, mice (WT, AhR^−/− mice (n=4/group)) were treated with half the dose of EtOH (2.5 g/kg) at 0, 12 and 24 h followed by oral treatment Veh (0.25% CMC) or UroA (20 mg/kg) at 2, 14 and 26 h.

[1] = Stability at gastric pH and with digestive enzymes; assay type: in vitro ADME; conditions: pH 2.0; enzymes 100 U/ml, 12 h, 37° C.; 0.2 mg/ml
Description: FIG. 1: UAS03 is a potent anti-inflammatory structural analogue of UroA and induces tight junction proteins. (A) Chemical structures of UroA, UAS03. UroA/UAS03 stability was examined in the presence of gastric pH 2.0 and digestive enzymes. UroA and UAS03 (0.2 mg/ml) were incubated with digestive enzymes (esterases and proteases, 100 U/ml) for 12 h at 37° C. and compound levels were quantified. (B) BMDMs were stimulated with LPS (50 ng/ml) without or with UroA (blue line)/UAS03 (purple line) (0.1, 1, 10, 25 and 50 μM) for 6 hours. IL-6 and TNF-α levels in supernatants were measured. (C) C57BL/6 mice (n=3-4) were pretreated with UroA (20 mg/kg) and UAS03 (20 mg/kg). After 4 hours, LPS (2 mg/kg) was injected intraperitoneally. Post 4 h of LPS administration, serum levels of IL-6 and TNF-α was measured. […] (G) The fold changes in mRNA levels of claudin 4 (Cldn4), occludin (Ocln) and Zona occludens 1 (ZO1) in HT29 cells were determined by RT PCR method. (H) UroA/UAS03 induced protein expression of Cldn4, Ocln and ZO1 in HT29 cells were determined by immunoblots and quantified by Image J software. […] The green intensity (n=15-20 cell membrane regions) was measured. […] The protein lysates were prepared from colon scrapes and subjected to immunoblots and detected the expression of the (J) Nrf2, HO1, Cldn4 and (K) AhR using appropriate antibodies as described in methods. […]

Row | SMILES | chronic low dose alcohol induced gut barrier dysfunction and inflammation (C57BL/6 mice) | TG levels in AhR^−/− mice (AhR^−/− mice) | EtOH-induced gut leakage, serum endotoxins, TNF-α, ALT, liver ALT in AhR^−/− mice (AhR^−/− mice; EtOH 2.5 g/kg) | stability at gastric pH and in the presence of gastric enzymes (esterases and proteases) [1]
1 | O=c1oc2cc(O)ccc2c2ccc(O)cc12 [UroA, 3,8-dihydroxy-6H-dibenzo[b,d]pyran-6-one] | protects against | down regulated TG levels | did not appear to rescue | 
2 | Oc1ccc2c(c1)COc1cc(O)ccc1-2 [UAS03, 6H-benzo[c]chromene-3,8-diol] |  |  |  | stable
